Where two headings read alike, the source gives them in different places. Marks after values point to notes of the source that are not given here. Where no end group is shown, it is not given here.
Columns and labels:
[1] = test system: Streptococcus mutans (R9); experiment: Antibacterial activity against monocultures in vitro (viability counts); format: cell-based; conditions: 0.5 h, 100 μg/ml
Method: (§1) Monocultures of the bacteria Streptococcus mutans (R9), Strentococcus sanguis (SB 179), Streptococcus salivarius (SS 196), Actinomyces naeslundii (WVU 627), Fusobacterium nucleatum (ATCC 10953), Prevotella intermedia ([…]) and Veillonella parvula (ATCC 17745) were cultured to a late log phase in BHI (Difco), washed three times in 10 mM potassium phosphate buffer (PPB) and diluted to a suspension of 10^6 CFU/ml. […] The control treatment was performed in 10 mM without peptide.

[2] = test system: Veillonella parvula (ATCC 17745); experiment: as above; format: cell-based; conditions: 0.5 h, 100 μg/ml
Method: as §1

[3] = test system: Fusobacterium nucleatum (ATCC 10953); experiment: as above; format: cell-based; conditions: 0.5 h, 100 μg/ml
Method: as §1

[4] = test system: Actinomyces naeslundii (WVU 627); experiment: as above; format: cell-based; conditions: 0.5 h, 100 μg/ml
Method: as §1

[5] = test system: Prevotella intermedia (T588); experiment: as above; format: cell-based; conditions: 0.5 h, 100 μg/ml
Method: as §1

[6] = test system: Streptococcus salivarius (SS 196); experiment: as above; format: cell-based; conditions: 0.5 h, 100 μg/ml
Method: as §1

[7] = test system: Strentococcus sanguis (SB 179); experiment: as above; format: cell-based; conditions: Streptococcus sanguis, 0.5 h, 100 μg/ml
Method: as §1

Streptococcus sanguis = experiment: Inhibition of lactic acid production; format: cell-based; conditions: S. sanguis; 1 hour in 10 mM PPB with glucose
Method: (§2) All peptides according to the invention were tested for their capacity to inhibit the lactic acid production of the bacteria Streptococcus sanguis, Streptococcus mutans, Streptococcus salivarius and Lactobacillus rhamnosus. The formation of lactic acid is a measure for the metabolic activity. For this purpose cultures of bacteria cells were incubated for 1 hour in 10 mM PPB with 0.5 glucose and different concentrations of the peptides. The formation of lactic acid was monitored by means of spectrophotometry.

Lactobacillus rhamnosus = experiment: Inhibition of lactic acid production; format: cell-based; conditions: L. rhamnosus; 1 hour in 10 mM PPB with glucose
Method: as §2

Streptococcus mutans = experiment: Inhibition of lactic acid production; format: cell-based; conditions: S. mutans; 1 hour in 10 mM PPB with glucose
Method: as §2

Streptococcus salivarius = experiment: Inhibition of lactic acid production; format: cell-based; conditions: S. salivarius; 1 hour in 10 mM PPB with glucose
Method: as §2

Candida albicans = experiment: Growth inhibition on agar with spotted peptide; format: cell-based; parameters: key: “+” designates full growth inhibition; “+/−” designates partial inhibition; “−” signifies no inhibition; conditions: C. albicans on agar, 10 μg peptide spotted
Method: (§3) The growth of the yeast Candida albicans, Torulopsis glabrata and meticillin-resistant Staphylococcus aureus (MRSA) was tested by growing them on agar on which 10 μg of each of the peptides according to the invention was spotted. […] “+” designates full growth inhibition, “+/−” designates partial inhibition and “−” signifies no inhibition.

Torulopsis glabrata = experiment: Growth inhibition on agar with spotted peptide; format: cell-based; parameters: key: “+” designates full growth inhibition; “+/−” designates partial inhibition; “−” signifies no inhibition; conditions: T. glabrata on agar, 10 μg peptide spotted
Method: as §3

[8] = test system: meticillin-resistant Staphylococcus aureus (MRSA); experiment: Growth inhibition on agar with spotted peptide; format: cell-based; parameters: key: “+” designates full growth inhibition; “+/−” designates partial inhibition; “−” signifies no inhibition; conditions: 10 μg peptide spotted
Method: as §3

[9] = test system: artificial oral biofilm of seven oral aerobic and anaerobic types of bacteria; experiment: Antibacterial activity in an artificial oral biofilm; format: cell-based; conditions: for % reduction in viability counts, total Gram-negative average (s.d.) / % reduction in viability counts, total aerobic average / % reduction in viability counts, total anaerobic average: 0.5 h, pH 7; for inhibition at 35 ppm / inhibition at 200 ppm: po
Method: An artificial oral biofilm was made by placing hydroxyapatite discs for five days in a continuous culture system of seven oral aerobic and anaerobic types of bacteria (Streptococcus mutans, Streptococcus sanpuis, Streptococcus salivarius, Actinomyces naeslundii, Veillonella parvula, Prevotella intermedia and Fusobacterium nucleatum) The discs with the biofilm formed thereon were subsequently incubated for half an hour with different concentrations of peptide in 10 mM potassium phosphate buffer, pH 7.0. The biofilm was then sonicated from the discs, diluted in PBS and plated out on semi-selective agar plates. The total […] were counted (Streptococci+Actinomyces) on aerobic incubated blood agar plates, the total Gram-negative counts (Veilonella, Fusobacterium and Prevotella) on vancomycin-containing plates and the total counts on the anaerobic incubated blood agar.

[10] = test system: bacteria collected from saliva; experiment: Antimicrobial activity on oral bacteria; format: cell-based; conditions: po
Excerpt: (§4) In order to determine whether the peptides according to the invention are also active against bacteria such as are encountered in the mouth, bacteria were collected from saliva and plaque. Saliva was shaken on a vortex mixer and centrifuged.

[11] = test system: bacteria from cultured plaque; experiment: Antimicrobial activity on oral bacteria; format: cell-based; conditions: po
Excerpt: as §4

[12] = test system: bacteria from disrupted plaque; experiment: Antimicrobial activity on oral bacteria; format: cell-based; conditions: po
Excerpt: as §4

[13] = test system: bacteria collected from plaque; experiment: Antimicrobial activity on oral bacteria; format: cell-based; conditions: po
Excerpt: as §4

Candida parapsilosis = experiment: microbe, parasite or virus in culture; conditions: pH 7
Method: (§5) 5*10^6 cells of Candida pseudotropicalis, Candida albicans 10231, Cryptococcus neoformans, Candida krusei, Candida parapsilosis, Candida glabrata and Candida albicans 32354 and an ergosterol-deficient mutant thereof were incubated for one and a half hours at 37° C. in the presence of a dilution series of a peptide according to the invention or amphotericin B in 1 mM potassium phosphate buffer, pH 7.0. The viability was determined by plating out. Used as positive control was synthetic PGLa (“Protein beginning with Glycine and ending with Leucin-amide”, with the amino acid sequence […]-amide).

Candida albicans 10231 = experiment: microbe, parasite or virus in culture; conditions: 10231, pH 7
Method: as §5

Cryptococcus neoformans = experiment: microbe, parasite or virus in culture; conditions: pH 7
Method: as §5

Candida glabrata = experiment: microbe, parasite or virus in culture; conditions: pH 7
Method: as §5

Candida krusei = experiment: microbe, parasite or virus in culture; conditions: pH 7
Method: as §5

Candida pseudotropicalis = experiment: microbe, parasite or virus in culture; conditions: pH 7
Method: as §5

[14] = read-out: % reduction in viability counts, total Gram-negative average (s.d.)
[15] = read-out: % reduction in viability counts, total aerobic average
[16] = read-out: % reduction in viability counts, total anaerobic average
[17] = read-out: % reduction in viability counts, total Gram-negative average

KRLFKELKFSLRKY-OH [peptide 3, KRLFKELKFSLRKY]
% reduction in viability counts [1]: >99.9* %
% reduction in viability counts [2]: >99.9* %
% reduction in viability counts [3]: 92.9 (3.00)* %
% reduction in viability counts [4]: >99.9* %
% reduction in viability counts [5]: −57.8 (77.9) %
% reduction in viability counts [6]: >99.9* %
% reduction in viability counts [7]: 99.6 (0.30)* %
inhibition of lactic acid production (Streptococcus sanguis): + (“+” designates full inhibition at 4-20 μg/ml peptide)
inhibition of lactic acid production (Lactobacillus rhamnosus): + (“+” designates full inhibition at 4-20 μg/ml peptide)
inhibition of lactic acid production (Streptococcus mutans): + (“+” designates full inhibition at 4-20 μg/ml peptide)
inhibition of lactic acid production (Streptococcus salivarius): + (“+” designates full inhibition at 4-20 μg/ml peptide)
growth inhibition (Candida albicans): +
growth inhibition (Torulopsis glabrata): +
growth inhibition [8]: +/−

KRLFKKLKFSLRKY-OH [peptide 9, KRLFKKLKFSLRKY]
% reduction in viability counts, total Gram-negative average (s.d.) ([9]; 10 μg/ml): 51.0 (32.0)* %
% reduction in viability counts, total aerobic average ([9]; 10 μg/ml): −67.4%
% reduction in viability counts, total anaerobic average ([9]; 10 μg/ml): −66.2%
% reduction in viability counts, total Gram-negative average (s.d.) ([9]; 100 μg/ml): 30.6 (104.4)* %
% reduction in viability counts, total aerobic average ([9]; 100 μg/ml): 78.7%
% reduction in viability counts, total anaerobic average ([9]; 100 μg/ml): 51.2%
% reduction in viability counts, total Gram-negative average (s.d.) ([9]; 250 μg/ml): 53.3 (70.7) %
% reduction in viability counts, total aerobic average ([9]; 250 μg/ml): 64.8%
% reduction in viability counts, total anaerobic average ([9]; 250 μg/ml): 61.2%
% reduction in viability counts, total Gram-negative average (s.d.) ([9]; 500 μg/ml): 96.9 (0.85)* %
% reduction in viability counts, total aerobic average ([9]; 500 μg/ml): 96.6%
% reduction in viability counts, total anaerobic average ([9]; 500 μg/ml): 93.2%
inhibition of lactic acid production (Streptococcus sanguis): + (“+” designates full inhibition at 4-20 μg/ml peptide)
inhibition of lactic acid production (Lactobacillus rhamnosus): + (“+” designates full inhibition at 4-20 μg/ml peptide)
inhibition of lactic acid production (Streptococcus mutans): + (“+” designates full inhibition at 4-20 μg/ml peptide)
inhibition of lactic acid production (Streptococcus salivarius): + (“+” designates full inhibition at 4-20 μg/ml peptide)
growth inhibition (Candida albicans): +
growth inhibition (Torulopsis glabrata): +
growth inhibition [8]: +

[H]/N=C(\N/C(=N/[H])NCCCCCCNC(=N)NC(=N)Nc1ccc(Cl)cc1)Nc1ccc(Cl)cc1 [Chlorhexidine]
inhibition at 35 ppm [9, 14]: 68.3%
inhibition at 200 ppm [9, 14]: 99.9%
inhibition at 35 ppm [9, 15]: 39%
inhibition at 200 ppm [9, 15]: 99.9%
inhibition at 35 ppm [9, 16]: 38.4%
inhibition at 200 ppm [9, 16]: 99.9%
inhibition at 50 ppm [10, 17]: > 99.9%
inhibition at 50 ppm [10, 15]: > 99.9%
inhibition at 50 ppm [10, 16]: > 99.9%
inhibition at 50 ppm [11, 17]: > 99.9%
inhibition at 50 ppm [11, 15]: > 99.9%
inhibition at 50 ppm [11, 16]: > 99.9%
inhibition at 50 ppm [12, 17]: > 99.9%
inhibition at 50 ppm [12, 15]: 99.7%
inhibition at 50 ppm [12, 16]: 99%
inhibition at 50 ppm [13, 17]: 99.7%
inhibition at 50 ppm [13, 15]: 99.7%
inhibition at 50 ppm [13, 16]: 99.7%

SSSKEENRIIPGGI [negative control, SSSKEENRIIPGGI]
IC50 values (50% of the inoculum is killed) (Candida parapsilosis): >67 µg/mL
IC50 values (50% of the inoculum is killed) (Candida albicans 10231): >67 µg/mL
IC50 values (50% of the inoculum is killed) (Cryptococcus neoformans): >67 µg/mL
IC50 values (50% of the inoculum is killed) (Candida glabrata): >67 µg/mL
IC50 values (50% of the inoculum is killed) (Candida krusei): >67 µg/mL
IC50 values (50% of the inoculum is killed) (Candida pseudotropicalis): >67 µg/mL

C[C@H](NC(=O)[C@H](Cc1cnc[nH]1)NC(=O)[C@H](CO)NC(=O)[C@@H](N)CC(=O)O)C(=O)N[C@@H](CCCCN)C(=O)N[C@@H](CCCNC(=N)N)C(=O)N[C@@H](Cc1cnc[nH]1)C(=O)N[C@@H](Cc1cnc[nH]1)C(=O)NCC(=O)N[C@@H](Cc1ccc(O)cc1)C(=O)N[C@@H](CCCCN)C(=O)N[C@@H](CCCNC(=N)N)C(=O)N[C@@H](CCCCN)C(=O)N[C@@H](Cc1ccccc1)C(=O)N[C@@H](Cc1cnc[nH]1)C(=O)N[C@@H](CCC(=O)O)C(=O)N[C@@H](CCCCN)C(=O)N[C@@H](Cc1cnc[nH]1)C(=O)N[C@@H](Cc1cnc[nH]1)C(=O)N[C@@H](CO)C(=O)N[C@@H](Cc1cnc[nH]1)C(=O)N[C@@H](CCCNC(=N)N)C(=O)NCC(=O)N[C@@H](Cc1ccc(O)cc1)C(=O)O [histatin 5, reference compound]
% reduction in viability counts [1]: −49.5%
% reduction in viability counts [2]: 26.9%
% reduction in viability counts [3]: 49.3%
% reduction in viability counts [4]: −11.6%
% reduction in viability counts [6]: 38.3%
% reduction in viability counts [7]: 69.5%
inhibition of lactic acid production (Streptococcus sanguis): − (“−” signifies no inhibition of lactic acid formation at >100 μg/ml peptide)
inhibition of lactic acid production (Lactobacillus rhamnosus): − (“−” signifies no inhibition of lactic acid formation at >100 μg/ml peptide)
inhibition of lactic acid production (Streptococcus mutans): − (“−” signifies no inhibition of lactic acid formation at >100 μg/ml peptide)
inhibition of lactic acid production (Streptococcus salivarius): − (“−” signifies no inhibition of lactic acid formation at >100 μg/ml peptide)
growth inhibition (Candida albicans): −
growth inhibition (Torulopsis glabrata): −
growth inhibition [8]: −

LLLFLLKKRKKRKY [peptide 11]
inhibition of lactic acid production (Streptococcus sanguis): + (“+” designates full inhibition at 4-20 μg/ml peptide)
inhibition of lactic acid production (Lactobacillus rhamnosus): + (“+” designates full inhibition at 4-20 μg/ml peptide)
inhibition of lactic acid production (Streptococcus mutans): + (“+” designates full inhibition at 4-20 μg/ml peptide)
inhibition of lactic acid production (Streptococcus salivarius): + (“+” designates full inhibition at 4-20 μg/ml peptide)
growth inhibition (Candida albicans): +
growth inhibition (Torulopsis glabrata): +
growth inhibition [8]: +
